In patent publication US20230203008A1, “3-AZABICYCLOALKYL DERIVATIVE AND PHARMACEUTICAL COMPOSITION CONTAINING SAME” (LG CHEM, LTD., priority 2020, published 2023):

What follows are molecules tested against T1, KHK (Homo sapiens, UniProt P50053) (assay: Measurement of in vitro activity of KHK inhibitor (Transcreener ADP2 TR-FRET Red Assay)). Conditions: purified His-tagged KHK expressed in E. coli; 30 min preincubation with inhibitor, 15 min substrate reaction; Morrison equation.
T1 construct: His tag; made in house; host or cells: E. coli
T1 sequence (P50053 1-298): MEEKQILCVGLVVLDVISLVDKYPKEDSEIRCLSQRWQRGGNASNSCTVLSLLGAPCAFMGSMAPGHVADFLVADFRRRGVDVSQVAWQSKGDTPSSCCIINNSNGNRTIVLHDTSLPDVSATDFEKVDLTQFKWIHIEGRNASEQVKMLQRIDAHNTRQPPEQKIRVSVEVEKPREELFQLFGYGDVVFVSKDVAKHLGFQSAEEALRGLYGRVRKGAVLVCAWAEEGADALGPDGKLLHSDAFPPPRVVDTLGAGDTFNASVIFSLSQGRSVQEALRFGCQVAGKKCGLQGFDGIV
Assay type: biochemical
Experimental: KHK was expressed in E. coli, and purified using a His tag. To measure the activity of the purified KHK, a Transcreener ADP2 TR-FRET Red Assay kit of BellBrook Labs was used. The Transcreener ADP2 TR-FRET Red Assay kit is a method of measuring an amount of generated ADP using TR-FRET after proper concentrations of KHK and ATP, and a fructose-containing solution were reacted for 15 minutes. To measure the activity of a KHK inhibitor, KHK and a proper concentration of an inhibitor were first reacted for 30 minutes, and reacted with a solution containing a KHK substrate for 15 minutes. In addition, after the TR-FRET reaction for 1 hour, fluorescence was measured using an Envision apparatus of PerkinElmer. A setting value of the Envision apparatus was determined according to the TR-FRET optimization procedures published by BellBrook Labs.
The resulting value for each concentration of the KHK inhibitor is determined a ratio of a 665-nm wavelength and a 615-nm wavelength. Here, the 665/615 ratio was converted to an ADP concentration based on an ADP standard curve, and the inhibitory activity, a Ki value, was obtained using the Morrison equation in statistical software (Prizm).

| Structure (SMILES) | Ki [nM] |
| --- | --- |
| C[C@H]1CCN1c1nc(N2C[C@H]3C[C@@H](C2)[C@@H]3CC(=O)O)c2c(c1C#N)CCC2 [Example 1, 2-((1R,5S,6S)-3-(4-cyano-3-((S)-2-methylazetidin-1-yl)-6,7-dihydro-5H-cyclopenta[c]pyridin-1-yl)-3-azabicyclo[3.1.1]heptan-6-yl)acetic acid] | ≤ 100 |
| C[C@H]1CCN1c1nc(N2C[C@H]3C[C@@H](C2)[C@@H]3CC(=O)O)c2c(c1C#N)CCCC2 [Example 2, 2-((1R,5S,6S)-3-(4-cyano-3-((S)-2-methylazetidin-1-yl)-5,6,7,8-tetrahydroisoquinolin-1-yl)-3-azabicyclo[3.1.1]heptan-6-yl)acetic acid] | ≤ 100 |
| C[C@H]1CCN1c1nc(N2CC3CC(C2)C3CC(=O)O)c2c(c1C#N)CCCCC2 (stereo partly drawn) [Example 3, 2-(3-(4-cyano-3-((S)-2-methylazetidin-1-yl)-6,7,8,9-tetrahydro-5H-cyclohepta[c]pyridin-1-yl)-3-azabicyclo[3.1.1]heptan-6-yl)acetic acid] | ≤ 100 |
| C[C@H]1CCN1c1nc(N2C[C@H]3C[C@@H](C2)[C@@H]3CC(=O)O)c2c(c1C#N)CCOC2 [Example 4, 2-((1R,5S,6S)-3-(5-cyano-6-((S)-2-methylazetidin-1-yl)-3,4-dihydro-1H-pyrano[3,4-c]pyridin-8-yl)-3-azabicyclo[3.1.1]heptan-6-yl)acetic acid] | ≤ 100 |
| C[C@H]1CCN1c1nc(N2CC3CC(C2)C3CC(=O)O)c2c(n1)C(C)(C)OC2 (stereo partly drawn) [Example 5, 2-(3-(7,7-dimethyl-2-((S)-2-methylazetidin-1-yl)-5,7-dihydrofuro[3,4-d]pyrimidin-4-yl)-3-azabicyclo[3.1.1]heptan-6-yl)acetic acid] | 100 to 1000 |
| C[C@@H]1OCc2c1nc(N1CC[C@@H]1C)nc2N1C[C@H]2C[C@@H](C1)[C@@H]2CC(=O)O [Example 6, 2-((1R,5S,6S)-3-((S)-7-methyl-2-((S)-2-methylazetidin-1-yl)-5,7-dihydrofuro [3,4-d]pyrimidin-4-yl)-3-azabicyclo[3.1.1]heptan-6-yl)acetic acid] | 100 to 1000 |

The next lines start with the values.

| Ki [nM] | Structure (SMILES) |
| --- | --- |
| 100 to 1000 | C[C@@H]1OCc2c1nc(N1CC[C@@H]1C)nc2N1C[C@@H]2[C@@H](CC(=O)O)[C@@H]2C1 [Example 7, 2-((1R,5S,6S)-3-((S)-7-methyl-2-((S)-2-methylazetidin-1-yl)-5,7-dihydrofuro[3,4-d]pyrimidin-4-yl)-3-azabicyclo[3.1.0]hexan-6-yl)acetic acid] |
| ≤ 100 | C[C@H]1CCN1c1nc(N2C[C@H]3C[C@@H](C2)[C@@H]3CC(=O)O)c2c(n1)C(F)(F)CC2 [Example 8, 2-((1R,5S,6S)-3-(7,7-difluoro-2-((S)-2-methylazetidin-1-yl)-6,7-dihydro-5H-cyclopenta[d]pyrimidin-4-yl)-3-azabicyclo[3.1.1]heptan-6-yl)acetic acid] |
| ≤ 100 | C[C@H]1CCN1c1nc(N2C[C@@H]3[C@@H](CC(=O)O)[C@@H]3C2)c2c(n1)C(F)(F)CC2 [Example 9, 2-((1R,5S,6S)-3-(7,7-difluoro-2-((S)-2-methylazetidin-1-yl)-6,7-dihydro-5H-cyclopenta[d]pyrimidin-4-yl)-3-azabicyclo[3.1.0]hexan-6-yl)acetic acid] |
| ≤ 100 | C[C@H]1CCN1c1nc(N2C[C@H]3C[C@@H](C2)[C@@H]3CC(=O)O)c2c(n1)C(F)(F)CCC2 [Example 10, 2-((1R,5S,6S)-3-(8,8-difluoro-2-((S)-2-methylazetidin-1-yl)-5,6,7,8-tetrahydroquinazolin-4-yl)-3-azabicyclo[3.1.1]heptan-6-yl)acetic acid] |
| ≤ 100 | C[C@H]1CCN1c1nc(N2C[C@@H]3[C@@H](CC(=O)O)[C@@H]3C2)c2c(n1)C(F)(F)CCC2 [Example 11, 2-((1R,5S,6S)-3-(8,8-difluoro-2-((S)-2-methylazetidin-1-yl)-5,6,7,8-tetrahydroquinazolin-4-yl)-3-azabicyclo[3.1.0]hexan-6-yl)acetic acid] |
| 100 to 1000 | O=C(O)C[C@@H]1[C@H]2CN(c3nc(N4CCCC4)nc4c3CCCC4(F)F)C[C@@H]12 [Example 12, 2-((1R,5S,6S)-3-(8,8-difluoro-2-(pyrrolidin-1-yl)-5,6,7,8-tetrahydroquinazolin-4-yl)-3-azabicyclo[3.1.0]hexan-6-yl)acetic acid] |
